Measurements from patent publication US20230040770A1, “HETEROCYCLIC COMPOUND AND USE THEREOF” (TAKEDA PHARMACEUTICAL COMPANY LIMITED, priority 2019, published 2023).

What follows are compounds tested against T1, human orexin type 2 receptor (Homo sapiens, UniProt O43614) (assay: Measurement of orexin type 2 receptor agonist activity (calcium indicator fluorescence, CHO cells forcibly expressing human OX2 receptor)). Settings: compound at 3 μM; 0% = DMSO, 100% = orexin A (human) 10 nM.
T1 construct: expressed in transfected cells
T1 sequence (O43614 1-444): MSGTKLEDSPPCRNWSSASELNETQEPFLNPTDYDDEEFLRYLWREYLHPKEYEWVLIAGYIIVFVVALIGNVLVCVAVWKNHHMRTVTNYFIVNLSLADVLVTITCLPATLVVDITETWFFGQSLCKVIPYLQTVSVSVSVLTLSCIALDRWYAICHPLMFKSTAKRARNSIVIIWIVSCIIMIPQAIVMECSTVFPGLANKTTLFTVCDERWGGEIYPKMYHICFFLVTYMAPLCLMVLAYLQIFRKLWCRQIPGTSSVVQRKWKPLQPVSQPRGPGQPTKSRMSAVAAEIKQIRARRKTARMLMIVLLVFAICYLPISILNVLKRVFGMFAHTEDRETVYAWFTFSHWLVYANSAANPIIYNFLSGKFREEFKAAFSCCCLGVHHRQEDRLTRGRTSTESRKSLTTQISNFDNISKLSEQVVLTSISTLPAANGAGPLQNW
Assay type: cell-based
From the text: To obtain a cell clone stably expressing human orexin type 2 receptor, human orexin type 2 receptor cDNA was inserted into pcDNA3.1(+) plasmid vector (Invitrogen), and a plasmid DNA for expression of human orexin type 2 receptor (pcDNA3.1(+)/hOX2R) was cloned. The plasmid DNA was introduced into CHO-dhfr cell by an electroporation method, and human orexin type 2 receptor expressing clone cells were obtained by limiting dilution method by using G418 drug resistance as a selection marker.
CHO cells forcibly expressing human OX2 receptor were seeded in each well of 384 well black transparent bottom plate (BD Falcon) at 7,500 cells/well, and cultured for one day in a 5% CO2 incubator at 37° C. After removal of the medium in the cell plate, assay buffer A containing a calcium indicator (HBSS (Thermo Fisher Scientific), 20 mM HEPES (Thermo Fisher Scientific), 0.1% BSA (Sigma-Aldrich), 2.5 μg/mL Fluo-4 AM (DOJINDO Chemical), 0.08% Pluronic F127 (DOJINDO Chemical), 1.25 mM probenecid (DOJINDO Chemical)) was added at 30 μL/well. The plate was stood for 30 min in a 5% CO2 incubator at 37° C., and further stood at room temperature for 30 min. A test compound prepared by diluting with assay buffer B (HBSS, 20 mM HEPES, 0.1% BSA) was added at 10 μL/well, and the fluorescence value was measured by FDSSμCELL (Hamamatsu Photonics K.K.) every one sec for 1 min, and thereafter every two sec for […]. The activity (%) of the test compound was calculated assuming that variation in the fluorescence value when DMSO was added instead of the test compound was 0%, and variation in the fluorescence value when orexin A (human) (PEPTIDE INSTITUTE, INC.) was added at the final concentration of 10 nM was 100%.

Point of comparison: `CS(=O)(=O)N[C@@H]1[C@H](Cc2cccc(-c3cccc(F)c3)c2)N(C(=O)[C@H]2CCCO2)CC1(F)F` [Example 26, N-{(2S,3R)-4,4-difluoro-2-[(3′-fluoro[1,1′-biphenyl]-3-yl)methyl]-1-[(2R)-oxolane-2-carbonyl]pyrrolidin-3-yl}methanesulfonamide], “OX2R agonist activity (3 μM, %)” value 100%. Against it:
- CS(=O)(=O)N[C@@H]1[C@H](Cc2csc(-c3cc(F)cc(F)c3)n2)N(C(=O)C2(O)CCC2)CC1(F)F (racemic) [Example 136, rac-N-[(2S,3R)-2-{[2-(3,5-difluorophenyl)-1,3-thiazol-4-yl]methyl}-4,4-difluoro-1-(1-hydroxycyclobutane-1-carbonyl)pyrrolidin-3-yl]methanesulfonamide] — lower, 87%
- CC(C)(O)C(=O)N1CC(F)(F)[C@H](NS(C)(=O)=O)[C@@H]1Cc1cccc(-c2ccccc2)c1F [Example 4, N-[(2S,3R)-4,4-difluoro-2-[(2-fluoro[1,1′-biphenyl]-3-yl)methyl]-1-(2-hydroxy-2-methylpropanoyl)pyrrolidin-3-yl]methanesulfonamide] — higher, 101%
- CC(C)(O)C(=O)N1CC(F)(F)[C@H](NS(C)(=O)=O)[C@@H]1Cc1cccc(-c2cccc(F)c2)c1F [Example 7, N-[(2S,3R)-2-[(2,3′-difluoro[1,1′-biphenyl]-3-yl)methyl]-4,4-difluoro-1-(2-hydroxy-2-methylpropanoyl)pyrrolidin-3-yl]methanesulfonamide] — higher, 101%
- CCS(=O)(=O)N[C@@H]1[C@H](Cc2cccc(-c3cccc(F)c3)c2F)N(C(=O)C(C)(C)O)CC1(F)F [Example 8, N-[(2S,3R)-2-[(2,3′-difluoro[1,1′-biphenyl]-3-yl)methyl]-4,4-difluoro-1-(2-hydroxy-2-methylpropanoyl)pyrrolidin-3-yl]ethanesulfonamide] — lower, 99%
- CS(=O)(=O)N[C@@H]1[C@H](Cc2cccc(-c3cccc(F)c3)c2F)N(C(=O)N2CCC2)CC1(F)F [Example 11, N-{(2S,3R)-1-(azetidine-1-carbonyl)-2-[(2,3′-difluoro[1,1′-biphenyl]-3-yl)methyl]-4,4-difluoropyrrolidin-3-yl}methanesulfonamide] — lower, 85%
- CS(=O)(=O)N[C@@H]1[C@H](Cc2cccc(-c3cccc(F)c3)c2F)N(C(=O)C2(O)CCC2)CC1(F)F [Example 13, N-[(2S,3R)-2-[(2,3′-difluoro[1,1′-biphenyl]-3-yl)methyl]-4,4-difluoro-1-(1-hydroxycyclobutane-1-carbonyl)pyrrolidin-3-yl]methanesulfonamide] — lower, 93%
- CS(=O)(=O)N[C@@H]1[C@H](Cc2cccc(-c3cccc(F)c3)c2)N(C(=O)C23CC(C2)C3)CC1(F)F [Example 21, N-{(2S,3R)-1-(bicyclo[1.1.1]pentane-1-carbonyl)-4,4-difluoro-2-[(3′-fluoro[1,1′-biphenyl]-3-yl)methyl]pyrrolidin-3-yl}methanesulfonamide] — higher, 102%
- CCS(=O)(=O)N[C@@H]1[C@H](Cc2cccc(-c3ccccc3)c2F)N(C(=O)C2(O)CCC2)CC1(F)F [Example 23, N-[(2S,3R)-4,4-difluoro-2-[(2-fluoro[1,1′-biphenyl]-3-yl)methyl]-1-(1-hydroxycyclobutane-1-carbonyl)pyrrolidin-3-yl]ethanesulfonamide] — the same, 100%
- Cc1cccc(-c2cccc(C[C@H]3[C@@H](NS(C)(=O)=O)C(F)(F)CN3C(=O)C(C)(C)O)c2F)c1 [Example 25, N-[(2S,3R)-4,4-difluoro-2-[(2-fluoro-3′-methyl[1,1′-biphenyl]-3-yl)methyl]-1-(2-hydroxy-2-methylpropanoyl)pyrrolidin-3-yl]methanesulfonamide] — higher, 108%
- CC(C)C(=O)N1CC(F)(F)[C@H](NS(C)(=O)=O)[C@@H]1Cc1cccc(-c2cc(F)cc(F)c2)c1 [Example 35, N-[(2S,3R)-2-[(3′,5′-difluoro[1,1′-biphenyl]-3-yl)methyl]-4,4-difluoro-1-(2-methylpropanoyl)pyrrolidin-3-yl]methanesulfonamide] — lower, 96%
